According to article PMC12699471 (RSC Advances, 2025):
Entries after “also recorded” stand apart in the source; their conditions may differ.

Legend:
Assay type in all cases: cell-based, human
MCF-7 cells [1] = assay: Microscopic analysis of cell morphology, MCF-7 cells; conditions: 48 h treatment; for cell morphology / cell death under the microscope: 10× magnification
MCF-7 cells [2] = assay: MTT cell viability assay, MCF-7 cells
MDA-MB-231 cells = assay: MTT cell viability assay, MDA-MB-231 cells; conditions: for cell survival: MDA-MB-231 cells, 100 µM, 48 h, MTT

SMILES | breast cancer cell inhibitory activity as concluded from microscopy (MCF-7 cells [1]) | cell morphology / cell death under the microscope (MCF-7 cells [1]) | IC50 (MCF-7 cells [2]; Homo sapiens, MCF7) [µM] | cell survival (MCF-7 cells [2]; MCF-7 cells, 100 µM, 48 h, MTT) [%] | IC50 (MDA-MB-231 cells; Homo sapiens, MDA-MB-231) [µM] | cell survival (MDA-MB-231 cells) [%]
CCOC(=O)C1=C(COCc2cn(CCN3C(=O)C(=O)c4ccccc43)nn2)N=C2SC=CN2C1c1cccc(Cl)c1 (centres unmarked) [Compound 14a] | highest breast cancer cell inhibitory activity | mostly dead | 81.9 ± 2.26 | ~52 | 42.3 ± 0.83 | 58
CCOC(=O)C1=C(COCc2cn(CCN3C(=O)C(=O)c4cc(Cl)ccc43)nn2)N=C2SC=CN2C1c1cccc(Cl)c1 (centres unmarked) [Compound 14c] | highest breast cancer cell inhibitory activity | significant changes in their morphology; also recorded: mostly dead |  |  |  | 
CCOC(=O)C1=C(COCc2cn(CCN3C(=O)C(=O)c4cc(F)ccc43)nn2)N=C2SC=CN2C1c1cccc(Cl)c1 (centres unmarked) [Compound 14d] | not showing breast cancer cell growth inhibition | significant changes in their morphology |  |  |  | 
CCOC(=O)C1=C(COCc2cn(C3OC(COC(C)=O)C(OC(C)=O)C(OC(C)=O)C3OC(C)=O)nn2)N=C2SC=CN2C1c1cccc(Cl)c1 (centres unmarked) [Compound 15] | highest breast cancer cell inhibitory activity | mostly dead |  |  |  | 
CC/C(=C(\c1ccccc1)c1ccc(OCCN(C)C)cc1)c1ccccc1 [Tamoxifen, tamoxifen, reference compound] |  | significant changes in their morphology; also recorded: mostly dead |  |  |  | 63
